# Experiments:
# Experiment in all cases: relative viability (nuclei count vs DMSO), 5 days (fraction); higher = more cells survive
# UMC-11 = system: UMC-11
# Method in brief: (§1)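 Relative viability was taken as the ratio of nuclei in treated wells to nuclei in vehicle wells. Lung cancer cell lines in 1536-well plates received compounds by pin tool one day after seeding, either one drug alone or a fixed anchor-drug dose plus five library-drug doses (not always all listed) in √10 steps. Nuclei were counted on 4× images after 5 days of treatment, and values are medians of duplicate plates.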
# NCI-H2405 = system: NCI-H2405
# Method in brief: as §1
# LCLC-97TM1 = system: LCLC-97TM1
# Method in brief: as §1
# NCI-H1563 = system: NCI-H1563
# Method in brief: as §1
# NCI-H1395 = system: NCI-H1395
# Method in brief: as §1
# EMC-BAC-2 = system: EMC-BAC-2
# Method in brief: as §1
# NCI-H1651 = system: NCI-H1651
# Method in brief: as §1
# LCLC-103H = system: LCLC-103H
# Method in brief: as §1
# NCI-H2085 = system: NCI-H2085
# Method in brief: as §1
# H3255 = system: H3255
# Method in brief: as §1
# NCI-H1793 = system: NCI-H1793
# Method in brief: as §1
# NCI-H2087 = system: NCI-H2087
# Method in brief: as §1
# NCI-H1355 = system: NCI-H1355
# Method in brief: as §1
# HCC-827 = system: HCC-827
# Method in brief: as §1
# NCI-H1944 = system: NCI-H1944
# Method in brief: as §1
# NCI-H520 = system: NCI-H520
# Method in brief: as §1
# NCI-H322M = system: NCI-H322M
# Method in brief: as §1
# EPLC-272H = system: EPLC-272H
# Method in brief: as §1
# NCI-H650 = system: NCI-H650
# Method in brief: as §1
# ChaGo-K-1 = system: ChaGo-K-1
# Method in brief: as §1
# SK-MES-1 = system: SK-MES-1
# Method in brief: as §1
# NCI-H2023 = system: NCI-H2023
# Method in brief: as §1
# HCC-44 = system: HCC-44
# Method in brief: as §1
structure (smiles),measurement,setting,value
CC1(C)CCC(c2ccc(Cl)cc2)=C(CN2CCN(c3ccc(C(=O)NS(=O)(=O)c4ccc(N[C@H](CCN5CCOCC5)CSc5ccccc5)c(S(=O)(=O)C(F)(F)F)c4)cc3)CC2)C1 [Navitoclax] + N=C(N)NC(=N)NCCc1ccccc1 [Phenformin] (partner 250 µM),relative viability,UMC-11; first compound 0.005 µM,0.303
same,relative viability,UMC-11; first compound 0.01581 µM,0.323
same,relative viability,UMC-11; first compound 0.05 µM,0.35
same,relative viability,UMC-11; first compound 0.1581 µM,0.242
same,relative viability,UMC-11; first compound 0.5 µM,0.273
same,relative viability,NCI-H2405; first compound 0.005 µM,0.413
same,relative viability,NCI-H2405; first compound 0.01581 µM,0.44
same,relative viability,NCI-H2405; first compound 0.05 µM,0.376
same,relative viability,NCI-H2405; first compound 0.1581 µM,0.4
same,relative viability,NCI-H2405; first compound 0.5 µM,0.303
same,relative viability,LCLC-97TM1; first compound 0.005 µM,0.447
same,relative viability,LCLC-97TM1; first compound 0.01581 µM,0.504
same,relative viability,LCLC-97TM1; first compound 0.05 µM,0.403
same,relative viability,LCLC-97TM1; first compound 0.1581 µM,0.477
same,relative viability,LCLC-97TM1; first compound 0.5 µM,0.507
same,relative viability,NCI-H1563; first compound 0.005 µM,0.685
same,relative viability,NCI-H1563; first compound 0.01581 µM,0.723
same,relative viability,NCI-H1563; first compound 0.05 µM,0.611
same,relative viability,NCI-H1563; first compound 0.1581 µM,0.682
same,relative viability,NCI-H1563; first compound 0.5 µM,0.665
same,relative viability,NCI-H1395; first compound 0.005 µM,0.461
same,relative viability,NCI-H1395; first compound 0.01581 µM,0.501
same,relative viability,NCI-H1395; first compound 0.05 µM,0.451
same,relative viability,NCI-H1395; first compound 0.1581 µM,0.455
same,relative viability,NCI-H1395; first compound 0.5 µM,0.497
same,relative viability,EMC-BAC-2; first compound 0.005 µM,0.496
same,relative viability,EMC-BAC-2; first compound 0.01581 µM,0.604
same,relative viability,EMC-BAC-2; first compound 0.05 µM,0.523
same,relative viability,EMC-BAC-2; first compound 0.1581 µM,0.498
same,relative viability,EMC-BAC-2; first compound 0.5 µM,0.489
same,relative viability,NCI-H1651; first compound 0.005 µM,0.3
same,relative viability,NCI-H1651; first compound 0.01581 µM,0.3
same,relative viability,NCI-H1651; first compound 0.05 µM,0.298
same,relative viability,NCI-H1651; first compound 0.1581 µM,0.353
same,relative viability,NCI-H1651; first compound 0.5 µM,0.295
same,relative viability,LCLC-103H; first compound 0.005 µM,0.342
same,relative viability,LCLC-103H; first compound 0.01581 µM,0.359
same,relative viability,LCLC-103H; first compound 0.05 µM,0.314
same,relative viability,LCLC-103H; first compound 0.1581 µM,0.322
same,relative viability,LCLC-103H; first compound 0.5 µM,0.338
same,relative viability,NCI-H2085; first compound 0.005 µM,0.732
same,relative viability,NCI-H2085; first compound 0.01581 µM,0.847
same,relative viability,NCI-H2085; first compound 0.05 µM,0.593
same,relative viability,NCI-H2085; first compound 0.1581 µM,0.746
same,relative viability,NCI-H2085; first compound 0.5 µM,0.786
same,relative viability,H3255; first compound 0.005 µM,0.338
same,relative viability,H3255; first compound 0.01581 µM,0.399
same,relative viability,H3255; first compound 0.05 µM,0.376
same,relative viability,H3255; first compound 0.1581 µM,0.39
same,relative viability,H3255; first compound 0.5 µM,0.339
same,relative viability,NCI-H1793; first compound 0.005 µM,0.527
same,relative viability,NCI-H1793; first compound 0.01581 µM,0.445
same,relative viability,NCI-H1793; first compound 0.1581 µM,0.309
same,relative viability,NCI-H1793; first compound 0.5 µM,0.313
same,relative viability,NCI-H2087; first compound 0.005 µM,0.475
same,relative viability,NCI-H2087; first compound 0.01581 µM,0.452
same,relative viability,NCI-H2087; first compound 0.1581 µM,0.407
same,relative viability,NCI-H2087; first compound 0.5 µM,0.428
same,relative viability,NCI-H1355; first compound 0.005 µM,0.48
same,relative viability,NCI-H1355; first compound 0.01581 µM,0.467
same,relative viability,NCI-H1355; first compound 0.05 µM,0.388
same,relative viability,NCI-H1355; first compound 0.1581 µM,0.436
same,relative viability,NCI-H1355; first compound 0.5 µM,0.463
same,relative viability,HCC-827; first compound 0.005 µM,0.404
same,relative viability,HCC-827; first compound 0.01581 µM,0.434
same,relative viability,HCC-827; first compound 0.05 µM,0.355
same,relative viability,HCC-827; first compound 0.1581 µM,0.396
same,relative viability,HCC-827; first compound 0.5 µM,0.382
same,relative viability,NCI-H1944; first compound 0.005 µM,0.183
same,relative viability,NCI-H1944; first compound 0.01581 µM,0.191
same,relative viability,NCI-H1944; first compound 0.05 µM,0.182
same,relative viability,NCI-H1944; first compound 0.1581 µM,0.211
same,relative viability,NCI-H1944; first compound 0.5 µM,0.146
same,relative viability,NCI-H520; first compound 0.005 µM,0.576
same,relative viability,NCI-H520; first compound 0.01581 µM,0.758
same,relative viability,NCI-H520; first compound 0.05 µM,0.571
same,relative viability,NCI-H520; first compound 0.1581 µM,0.507
same,relative viability,NCI-H520; first compound 0.5 µM,0.616
same,relative viability,NCI-H322M; first compound 0.005 µM,0.805
same,relative viability,NCI-H322M; first compound 0.01581 µM,0.923
same,relative viability,NCI-H322M; first compound 0.05 µM,0.776
same,relative viability,NCI-H322M; first compound 0.1581 µM,0.848
same,relative viability,NCI-H322M; first compound 0.5 µM,0.954
same,relative viability,EPLC-272H; first compound 0.005 µM,0.376
same,relative viability,EPLC-272H; first compound 0.05 µM,0.324
same,relative viability,EPLC-272H; first compound 0.1581 µM,0.329
same,relative viability,EPLC-272H; first compound 0.5 µM,0.253
same,relative viability,NCI-H650; first compound 0.005 µM,0.447
same,relative viability,NCI-H650; first compound 0.01581 µM,0.473
same,relative viability,NCI-H650; first compound 0.05 µM,0.456
same,relative viability,NCI-H650; first compound 0.1581 µM,0.456
same,relative viability,NCI-H650; first compound 0.5 µM,0.504
same,relative viability,ChaGo-K-1; first compound 0.005 µM,0.459
same,relative viability,ChaGo-K-1; first compound 0.01581 µM,0.502
same,relative viability,ChaGo-K-1; first compound 0.05 µM,0.397
same,relative viability,ChaGo-K-1; first compound 0.1581 µM,0.48
same,relative viability,ChaGo-K-1; first compound 0.5 µM,0.501
same,relative viability,SK-MES-1; first compound 0.005 µM,0.581
same,relative viability,SK-MES-1; first compound 0.01581 µM,0.746
same,relative viability,SK-MES-1; first compound 0.05 µM,0.684
same,relative viability,SK-MES-1; first compound 0.1581 µM,0.681
same,relative viability,SK-MES-1; first compound 0.5 µM,0.722
same,relative viability,NCI-H2023; first compound 0.005 µM,0.432
same,relative viability,NCI-H2023; first compound 0.01581 µM,0.447
same,relative viability,NCI-H2023; first compound 0.05 µM,0.382
same,relative viability,NCI-H2023; first compound 0.1581 µM,0.425
same,relative viability,NCI-H2023; first compound 0.5 µM,0.428
same,relative viability,HCC-44; first compound 0.005 µM,0.173
same,relative viability,HCC-44; first compound 0.01581 µM,0.184
same,relative viability,HCC-44; first compound 0.05 µM,0.185
same,relative viability,HCC-44; first compound 0.1581 µM,0.131
same,relative viability,HCC-44; first compound 0.5 µM,0.197
